Experimental data reported in patent US11602531B2, “Vacuole-inducing compounds, methods of making and using the same” (The University of Toledo, priority 2017, dated 2023).

How the values were obtained:
Type in all cases: cell-based, human
U251 glioblastoma cells [1] = assay: Vacuolization of U251 cells by phase contrast and electron microscopy; conditions: 24 h; for vacuolization of endocytic compartments (accumulation of vacuoles): 10 μM MOPIPP or 1 μM vacuolin-1, phase contrast microscopy
U251 glioblastoma cells [2] = assay: RT-PCR analysis of miRNAs in cells and exosomes; conditions: for relative abundance of miR-21-5p in exosomal RNA: equal amounts of exosomal RNA, raw Ct values, three independent experiments
Method: Prior to beginning studies, cells were seeded in 10 cm diameter culture dishes at 500,000 cells/dish and maintained for 24 h in DMEM supplemented with 10% Gibco™ exosome-depleted FBS (ThermoFisher Scientific, Waltham, Mass.). The medium was then replaced with fresh medium containing either 10 μM MOPIPP (synthesized as described in Trabbic et al., “Differential Induction of Cytoplasmic Vacuolization and Methuosis by Novel 2-Indolyl-Substituted Pyridinylpropenones, ACS Med. Chem. Lett., 5 (2014) 73-77) or 1 μM vacuolin-1 (Santa Cruz Biotechnology, Santa Cruz, Calif.) dissolved in DMSO. Control cultures contain an equivalent volume of the DMSO vehicle (0.1%) in the medium. After 24 h, the medium was collected from the dishes (typically 10-12 dishes per condition) and the attached cells were pooled and counted with a Coulter Counter (model Z1). Exosomes were isolated from medium using the Exo-Spin™ Exosome Purification system (Cell Guidance Systems, St. Louis, Mo.). The medium was pre-cleared by centrifugation at 4° C., first at 300×g for 10 min and then at 16,000×g for 30 min. Then a volume of Buffer A equal to half the volume of medium was added and the mixture was incubated overnight at 4° C. The precipitate, enriched with exosomes, was collected by centrifugation at 16,000×g for 1 h, and the pellet was re-suspended in […] Dulbecco's phosphate-buffered saline (PBS), pH 7.4. […]
Total RNA was extracted and purified from cultured cells or exosomes using QIAzol™ lysis reagent followed by RNAeasy Mini spin-columns, according to the manufacturer's protocol (SA Biosciences/Qiagen, Germantown, Md.). […] RNA and cDNA were quantified and checked for purity (OD 260/280) using a Nano-Drop-1000 spectrophotometer (ThermoFisher). […] For comparisons of the miRNA contents of exosomes collected from the medium of cells treated with MOPIPP, vacuolin-1 or vehicle (DMSO), individual miScript primers were purchased for six of the most highly expressed miRNAs detected in U251 cells (SA Biosciences/Qiagen). […]

U251 glioblastoma cells [3] = assay: Cell counts, proliferation and viability of treated cultures (Coulter Counter); conditions: for cell attachment and proliferation despite vacuolization / growth inhibition (cell numbers versus DMSO control): U251 cells, 24 h; for cell attachment and proliferation despite vacuolization / cell proliferation and viability: 10 μM MOPIPP or 1 μM vacuolin-1; for growth inhibition (cell numbers versus DMSO control): 10 μM MOPIPP or 1 μM vacuolin-1, Coulter Counter; for cell proliferation and viability: U251 glioblastoma cells
Method: U251 human glioblastoma cells were purchased from the DCT Tumor Repository (National Cancer Institute, Frederick, Md.). Stock cultures were maintained in Dulbecco's modified Eagle medium (DMEM) containing 10% (v/v) fetal bovine serum (FBS) (JR Scientific, Woodland, Calif.) at 37° C. with an atmosphere of 5% CO2 in air. Cultures were passaged for less than 6 months and were monitored periodically for Mycoplasma contamination.
(§1) Prior to beginning studies, cells were seeded in 10 cm diameter culture dishes at 500,000 cells/dish and maintained for 24 h in DMEM supplemented with 10% Gibco™ exosome-depleted FBS (ThermoFisher Scientific, Waltham, Mass.). The medium was then replaced with fresh medium containing either 10 μM MOPIPP (synthesized as described in Trabbic et al., “Differential Induction of Cytoplasmic Vacuolization and Methuosis by Novel 2-Indolyl-Substituted Pyridinylpropenones, ACS Med. Chem. Lett., 5 (2014) 73-77) or 1 μM vacuolin-1 (Santa Cruz Biotechnology, Santa Cruz, Calif.) dissolved in DMSO. Control cultures contain an equivalent volume of the DMSO vehicle (0.1%) in the medium. After 24 h, the medium was collected from the dishes (typically 10-12 dishes per condition) and the attached cells were pooled and counted with a Coulter Counter (model Z1). Exosomes were isolated from medium using the Exo-Spin™ Exosome Purification system (Cell Guidance Systems, St. Louis, Mo.). The medium was pre-cleared by centrifugation at 4° C., first at 300×g for 10 min and then at 16,000×g for 30 min. Then a volume of Buffer A equal to half the volume of medium was added and the mixture was incubated overnight at 4° C. The precipitate, enriched with exosomes, was collected by centrifugation at 16,000×g for 1 h, and the pellet was re-suspended in […] Dulbecco's phosphate-buffered saline (PBS), pH 7.4. The material was applied to an Exo-Spin column equilibrated with PBS, and the purified exosomes were eluted in 200 μl of PBS.

U251 glioblastoma cells [4] = assay: Immunoblot quantification of exosome marker proteins (CD63, Alix, LAMP-1) in purified exosomes and in cells; conditions: 10 μM MOPIPP or 1 μM vacuolin-1, western blot; for changes in expression of CD63, Alix and LAMP-1 in the corresponding cell populations: cell lysates, 24 h; for relative amounts of CD63, Alix and LAMP-1 in extracellular vesicle preparations versus control: exosomes from 24 h conditioned medium
Method: as §1
The cells in the dishes used for collection of exosomes were washed three times with PBS and lysed in SDS sample buffer (Laemmli, “Cleavage of structural proteins during the assembly of the head of bacteriophage T4, Nature, 227 (1970) 680-685). The protein concentration was determined by colorimetric assay using Bio-Rad reagent (Bio-Rad, Richmond, Calif.). Samples containing equal amounts of total cell protein were subjected to SDS-PAGE and immunoblot analysis (as described in Maltese et al., “Retention of the Alzheimer's amyloid precursor fragment C99 in the endoplasmic reticulum prevents formation of amyloid beta-peptide, J. Biol. Chem., 276 (2001) 20267-20279). For analysis of proteins in exosomes, equal volumes of purified exosomes isolated from control or treated cells were mixed with ⅕ volume of 5×SDS sample buffer prior to SDS-PAGE. Monoclonal antibodies against CD63 and LAMP-1 were obtained from the Developmental Studies Hybridoma Bank (Iowa City, Iowa). […] Chemiluminescent signals on the membranes were quantified using an Alpha Innotech FluorChem HD2 imaging system with Alpha View software.

| SMILES | vacuolization of endocytic compartments (accumulation of vacuoles) (U251 glioblastoma cells [1]) | subpopulation of vacuoles containing clusters of heterogeneous vesicles (ILV/exosome size) (U251 glioblastoma cells [1]; 10 μM MOPIPP, electron microscopy) | cellular expression of 13 selected miRNAs (U251 glioblastoma cells [2]; U251 cells, 24 h, 10 μM MOPIPP versus DMSO, RT-PCR) | relative abundance of miR-21-5p in exosomal RNA (U251 glioblastoma cells [2]) | cell attachment and proliferation despite vacuolization (U251 glioblastoma cells [3]) | growth inhibition (cell numbers versus DMSO control) (U251 glioblastoma cells [3]) | cell proliferation and viability (U251 glioblastoma cells [3]) | changes in expression of CD63, Alix and LAMP-1 in the corresponding cell populations (U251 glioblastoma cells [4]) | relative amounts of CD63, Alix and LAMP-1 in extracellular vesicle preparations versus control (U251 glioblastoma cells [4]) |
| --- | --- | --- | --- | --- | --- | --- | --- | --- | --- |
| CCCc1[nH]c2ccc(OC)cc2c1C=CC(=O)c1ccncc1 [MOPIPP, 3-(5-methoxy-2-propyl-1H-indol-3-yl)-1-(4-pyridinyl)-2-propen-1-one] | resulted in vacuolization of endocytic compartments | 20-30% | did not cause major changes | no observations of any changes | remained attached to the culture dishes and continued to proliferate | lack of growth inhibition | not markedly impaired | comparatively modest | increased by several fold |
| Ic1cccc(/C=N/Nc2nc(N3CCOCC3)nc(N(c3ccccc3)c3ccccc3)n2)c1 [vacuolin-1, reference compound] | induced a very similar phenotype |  |  | no observations of any changes | remained attached to the culture dishes and continued to proliferate | lack of growth inhibition | not markedly impaired | comparatively modest | An even greater increase |
